Measured values taken from PubChem BioAssay AID2060510 (Molecular Pharmacology Branch, DTP, NCI, 2025).

Test system: 439559-082-T-J2-PDC spheroids viability
Experiment: Anticancer human tumor 439559-082-T-J2-PDC patient-derived colon adenocarcinoma cell line growth inhibition [GQUAD]
Details: for IC50: curve of first compound; for viability, T/C: stronger effect = lower value
In short: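 Tumor cells were grown as complex spheroids with HUVEC endothelial cells and mesenchymal stem cells as stroma. G-quadruplex stabilizers were combined with targeted agents over half-log dilutions from near the clinical Cmax, or from 10 microM.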

[1] = second compound 0.0316 µM, first compound 0.0316 µM
[2] = second compound 0.0316 µM, first compound 0.316 µM
[3] = second compound 0.1 µM, first compound 0.0316 µM
[4] = second compound 0.1 µM, first compound 0.316 µM
[5] = second compound 0.316 µM, first compound 0.0316 µM
[6] = second compound 0.316 µM, first compound 0.316 µM
[7] = second compound 1 µM, first compound 0.0316 µM
[8] = second compound 1 µM, first compound 0.316 µM
[9] = second compound 3.16 µM, first compound 0.0316 µM
[10] = second compound 3.16 µM, first compound 0.316 µM
[11] = second compound 10 µM, first compound 0.0316 µM
[12] = second compound 10 µM, first compound 0.316 µM
[13] = second compound 0.0316 µM, first compound 0.000999 µM
[14] = second compound 0.0316 µM, first compound 0.00316 µM
[15] = second compound 0.0316 µM, first compound 0.00999 µM
[16] = second compound 0.0316 µM, first compound 0.0999 µM
[17] = second compound 0.1 µM, first compound 0.000999 µM
[18] = second compound 0.1 µM, first compound 0.00316 µM
[19] = second compound 0.1 µM, first compound 0.00999 µM
[20] = second compound 0.1 µM, first compound 0.0999 µM
[21] = second compound 0.316 µM, first compound 0.000999 µM
[22] = second compound 0.316 µM, first compound 0.00316 µM
[23] = second compound 0.316 µM, first compound 0.00999 µM
[24] = second compound 0.316 µM, first compound 0.0999 µM
[25] = second compound 1 µM, first compound 0.000999 µM
[26] = second compound 1 µM, first compound 0.00316 µM
[27] = second compound 1 µM, first compound 0.00999 µM
[28] = second compound 1 µM, first compound 0.0999 µM
[29] = second compound 3.16 µM, first compound 0.000999 µM
[30] = second compound 3.16 µM, first compound 0.00316 µM
[31] = second compound 3.16 µM, first compound 0.00999 µM
[32] = second compound 3.16 µM, first compound 0.0999 µM
[33] = second compound 10 µM, first compound 0.000999 µM
[34] = second compound 10 µM, first compound 0.00316 µM
[35] = second compound 10 µM, first compound 0.00999 µM
[36] = second compound 10 µM, first compound 0.0999 µM
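Also: spheroids exposed to the agents for 7 days before readout.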
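For viability, T/C in this document: percent of luminescence signal in DMSO vehicle wells taken as 100% viability.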

SMILES: C=CC(=O)N1CCN(c2nc(=O)n(-c3c(C)ccnc3C(C)C)c3nc(-c4c(O)cccc4F)c(F)cc23)C(C)C1 (stereo unspecified) + CN(C)c1ccc(Nc2c3ccc(NC(=O)CCN4CCCC4)cc3nc3cc(NC(=O)CCN4CCCC4)ccc23)cc1
- IC50 (second compound 0.0316 µM): > 10 µM
- IC50 (second compound 0.1 µM): > 10 µM
- IC50 (second compound 0.316 µM): > 10 µM
- IC50 (second compound 1 µM): > 10 µM
- IC50 (second compound 3.16 µM): > 10 µM
- IC50 (second compound 10 µM): > 10 µM
- viability, T/C [1]: 103%
- viability, T/C (second compound 0.0316 µM, first compound 0.1 µM): 91.4%
- viability, T/C [2]: 93.6%
- viability, T/C (second compound 0.0316 µM, first compound 1 µM): 104%
- viability, T/C (second compound 0.0316 µM, first compound 3.16 µM): 111%
- viability, T/C (second compound 0.0316 µM, first compound 10 µM): 95.4%
- viability, T/C [3]: 105%
- viability, T/C (second compound 0.1 µM, first compound 0.1 µM): 92.2%
- viability, T/C [4]: 104%
- viability, T/C (second compound 0.1 µM, first compound 1 µM): 97.6%
- viability, T/C (second compound 0.1 µM, first compound 3.16 µM): 111%
- viability, T/C (second compound 0.1 µM, first compound 10 µM): 104%
- viability, T/C [5]: 104%
- viability, T/C (second compound 0.316 µM, first compound 0.1 µM): 102%
- viability, T/C [6]: 91.6%
- viability, T/C (second compound 0.316 µM, first compound 1 µM): 114%
- viability, T/C (second compound 0.316 µM, first compound 3.16 µM): 106%
- viability, T/C (second compound 0.316 µM, first compound 10 µM): 110%
- viability, T/C [7]: 112%
- viability, T/C (second compound 1 µM, first compound 0.1 µM): 96.3%
- viability, T/C [8]: 105%
- viability, T/C (second compound 1 µM, first compound 1 µM): 97.6%
- viability, T/C (second compound 1 µM, first compound 3.16 µM): 120%
- viability, T/C (second compound 1 µM, first compound 10 µM): 108%
- viability, T/C [9]: 94.8%
- viability, T/C (second compound 3.16 µM, first compound 0.1 µM): 103%
- viability, T/C [10]: 108%
- viability, T/C (second compound 3.16 µM, first compound 1 µM): 108%
- viability, T/C (second compound 3.16 µM, first compound 3.16 µM): 114%
- viability, T/C (second compound 3.16 µM, first compound 10 µM): 108%
- viability, T/C [11]: 103%
- viability, T/C (second compound 10 µM, first compound 0.1 µM): 96%
- viability, T/C [12]: 96.8%
- viability, T/C (second compound 10 µM, first compound 1 µM): 106%
- viability, T/C (second compound 10 µM, first compound 3.16 µM): 109%
- viability, T/C (second compound 10 µM, first compound 10 µM): 100%

SMILES: CC[C@@]1(O)C(=O)OCc2c1cc1n(c2=O)Cc2cc3c(CN(C)C)c(O)ccc3nc2-1 + CN(C)c1ccc(Nc2c3ccc(NC(=O)CCN4CCCC4)cc3nc3cc(NC(=O)CCN4CCCC4)ccc23)cc1
- IC50 (second compound 0.0316 µM): > 0.316 µM
- IC50 (second compound 0.1 µM): > 0.316 µM
- IC50 (second compound 0.316 µM): > 0.316 µM
- IC50 (second compound 1 µM): > 0.316 µM
- IC50 (second compound 3.16 µM): > 0.316 µM
- IC50 (second compound 10 µM): > 0.316 µM
- viability, T/C [13]: 102%
- viability, T/C [14]: 94.6%
- viability, T/C [15]: 104%
- viability, T/C [1]: 106%
- viability, T/C [16]: 90.2%
- viability, T/C [2]: 76%
- viability, T/C [17]: 108%
- viability, T/C [18]: 111%
- viability, T/C [19]: 102%
- viability, T/C [3]: 85.7%
- viability, T/C [20]: 91.8%
- viability, T/C [4]: 84%
- viability, T/C [21]: 123%
- viability, T/C [22]: 97.1%
- viability, T/C [23]: 101%
- viability, T/C [5]: 100%
- viability, T/C [24]: 87.9%
- viability, T/C [6]: 84.7%
- viability, T/C [25]: 114%
- viability, T/C [26]: 99%
- viability, T/C [27]: 88.5%
- viability, T/C [7]: 101%
- viability, T/C [28]: 91.1%
- viability, T/C [8]: 80.1%
- viability, T/C [29]: 99.8%
- viability, T/C [30]: 92.6%
- viability, T/C [31]: 102%
- viability, T/C [9]: 93.2%
- viability, T/C [32]: 103%
- viability, T/C [10]: 91.9%
- viability, T/C [33]: 102%
- viability, T/C [34]: 95%
- viability, T/C [35]: 100%
- viability, T/C [11]: 107%
- viability, T/C [36]: 85.8%
- viability, T/C [12]: 88.5%

SMILES: CCc1c2c(nc3ccc(O)cc13)-c1cc3c(c(=O)n1C2)COC(=O)[C@]3(O)CC + CN(C)c1ccc(Nc2c3ccc(NC(=O)CCN4CCCC4)cc3nc3cc(NC(=O)CCN4CCCC4)ccc23)cc1
- IC50 (second compound 0.0316 µM): 0.163 µM
- IC50 (second compound 0.1 µM): 0.181 µM
- IC50 (second compound 0.316 µM): 0.207 µM
- IC50 (second compound 1 µM): 0.179 µM
- IC50 (second compound 3.16 µM): 0.196 µM
- IC50 (second compound 10 µM): 0.195 µM
- viability, T/C [13]: 99.7%
- viability, T/C [14]: 88.5%
- viability, T/C [15]: 72.7%
- viability, T/C [1]: 70.1%
- viability, T/C [16]: 52.5%
- viability, T/C [2]: 43.8%
- viability, T/C [17]: 110%
- viability, T/C [18]: 91%
- viability, T/C [19]: 82.1%
- viability, T/C [3]: 72.6%
- viability, T/C [20]: 56.6%
- viability, T/C [4]: 42.9%
- viability, T/C [21]: 104%
- viability, T/C [22]: 93.6%
- viability, T/C [23]: 77.1%
- viability, T/C [5]: 70.5%
- viability, T/C [24]: 67.7%
- viability, T/C [6]: 40.3%
- viability, T/C [25]: 93.3%
- viability, T/C [26]: 85.7%
- viability, T/C [27]: 85.8%
- viability, T/C [7]: 69.3%
- viability, T/C [28]: 56.8%
- viability, T/C [8]: 43.9%
- viability, T/C [29]: 100%
- viability, T/C [30]: 90%
- viability, T/C [31]: 76.6%
- viability, T/C [9]: 64.2%
- viability, T/C [32]: 61.5%
- viability, T/C [10]: 43.2%
- viability, T/C [33]: 106%
- viability, T/C [34]: 79%
- viability, T/C [35]: 80.8%
- viability, T/C [11]: 75.4%
- viability, T/C [36]: 59.6%
- viability, T/C [12]: 41.7%
